Test [1] addresses T1, BTK (Homo sapiens, UniProt Q06187).
T1 construct: purchased Signalchem B10-10H
Briefly: Inhibitory activity against BTK, ADP-Glo Kinase system (Promega). It counts as biochemical. The procedure, abridged:
(§1)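 IC50 values were fitted from kinase reactions run for 1 h at 30°C with either 1 mM ATP or ATP at Km (10 µM for BTK, 25 µM for ITK). Reactions used 0.2 µg/µl poly(Glu4,Tyr1), recombinant human enzyme (BTK 10 ng, ITK 4 ng per reaction) in Tris pH 7.5 Mn/Mg buffer with 1% DMSO. ADP formed was read by ADP-Glo luminescence.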

Test [2] concerns the target T2, ITK (Homo sapiens, UniProt Q08881).
T2 construct: purchased Signalchem I13-11G-10
T2 sequence (Q08881 1-620): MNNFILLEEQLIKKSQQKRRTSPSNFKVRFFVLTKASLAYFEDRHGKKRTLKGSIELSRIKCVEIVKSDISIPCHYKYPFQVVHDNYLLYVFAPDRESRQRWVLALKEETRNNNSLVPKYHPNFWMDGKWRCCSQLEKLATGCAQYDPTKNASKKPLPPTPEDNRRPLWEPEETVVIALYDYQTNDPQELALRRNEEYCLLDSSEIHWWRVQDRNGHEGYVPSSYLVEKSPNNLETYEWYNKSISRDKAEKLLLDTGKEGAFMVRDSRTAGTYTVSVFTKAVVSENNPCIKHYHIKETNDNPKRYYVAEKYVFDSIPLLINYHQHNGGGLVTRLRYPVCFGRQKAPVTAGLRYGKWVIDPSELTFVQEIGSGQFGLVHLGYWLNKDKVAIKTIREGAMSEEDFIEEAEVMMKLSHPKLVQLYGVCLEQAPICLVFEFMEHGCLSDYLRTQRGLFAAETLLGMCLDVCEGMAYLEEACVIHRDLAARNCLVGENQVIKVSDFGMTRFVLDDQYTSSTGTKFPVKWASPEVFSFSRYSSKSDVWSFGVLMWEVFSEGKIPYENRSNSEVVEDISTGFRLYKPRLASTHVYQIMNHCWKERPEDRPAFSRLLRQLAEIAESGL
Briefly: Inhibitory activity against ITK, ADP-Glo Kinase system (Promega). The test is classed as biochemical. The procedure, abridged: as §1

Setting [3] is: 1mM ATP, read-out: BTK IC50(nM) 1mM ATP.
The mark [4] stands for this setting: 1mM ATP, read-out: ITK IC50(nM) 1mM ATP.
Setting [5] is: Km ATP (BTK: 10 uM), read-out: BTK IC50(nM) Km ATP.
The mark [6] stands for this setting: Km ATP (ITK: 25uM), read-out: ITK IC50(nM) Km ATP.

Structures are written as SMILES. Where two headings read alike, the source gives them in different places.

As usually defined, the IC50 is the point on the concentration scale where inhibition reaches its midpoint.

T1 sequence (Q06187 whole entry): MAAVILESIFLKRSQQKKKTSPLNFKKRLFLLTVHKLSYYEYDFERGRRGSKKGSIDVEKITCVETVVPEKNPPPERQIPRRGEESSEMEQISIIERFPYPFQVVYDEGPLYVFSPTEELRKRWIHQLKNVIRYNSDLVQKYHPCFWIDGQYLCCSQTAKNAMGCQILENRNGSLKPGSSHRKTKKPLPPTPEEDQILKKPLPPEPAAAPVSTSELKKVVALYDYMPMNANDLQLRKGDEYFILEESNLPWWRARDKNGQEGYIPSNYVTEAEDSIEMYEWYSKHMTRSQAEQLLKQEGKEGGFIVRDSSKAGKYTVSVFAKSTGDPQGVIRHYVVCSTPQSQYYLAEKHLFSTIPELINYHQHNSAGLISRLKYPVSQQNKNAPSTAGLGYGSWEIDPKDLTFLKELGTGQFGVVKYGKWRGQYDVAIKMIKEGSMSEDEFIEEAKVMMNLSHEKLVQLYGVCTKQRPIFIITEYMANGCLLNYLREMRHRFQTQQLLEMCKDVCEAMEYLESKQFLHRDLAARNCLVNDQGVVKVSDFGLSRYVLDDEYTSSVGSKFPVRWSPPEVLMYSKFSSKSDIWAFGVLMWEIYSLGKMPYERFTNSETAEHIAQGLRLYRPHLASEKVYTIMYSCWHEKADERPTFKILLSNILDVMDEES

For `C=CC(=O)N1CCC[C@H]1COc1nc(Nc2ncc(C)s2)cc2c1ccn2C1CCCC1` [Example 222, (S)-1-(2-(((1-cyclopentyl-6-((5-methylthiazol-2-yl)amino)-1H-pyrrolo[3,2-c]pyridin-4-yl)oxy)methyl)pyrrolidin-1-yl)prop-2-en-1-one], the IC50 is no more than 20 nM in test [1] (setting [3]) and 20 to 100 nM in test [2] (setting [4]).
Regarding `C=CC(=O)N1CC(Oc2nc(Nc3ncc(C)s3)cc3c2ccn3C(C)C)C1` [Example 80, 1-(3-((1-isopropyl-6-((5-methylthiazol-2-yl)amino)-1H-pyrrolo[3,2-c]pyridin-4-yl)oxy)azetidin-1-yl)prop-2-en-1-one], the IC50 in test [1] (setting [3]), in test [1] (setting [5]), in test [2] (setting [4]) and in test [2] (setting [6]) was no more than 20 nM throughout.
Turning to `C=CC(=O)N1CC[C@H](Oc2nc(Nc3ncc(C)s3)cc3c2ccn3C2CCCC2)C1` [Example 99, (S)-1-(3-((1-cyclopentyl-6-((5-methylthiazol-2-yl)amino)-1H-pyrrolo[3,2-c]pyridin-4-yl)oxy)pyrrolidin-1-yl)prop-2-en-1-one], the half-maximal inhibitory concentration (IC50) in test [1] (setting [3]) and in test [2] (setting [4]) was no more than 20 nM each time.
Turning to `C=CC(=O)N1C[C@H](F)[C@H](Oc2nc(Nc3ncc(C)s3)cc3c2ccn3CCOC)C1` [Example 147, 1-((3S,4R)-3-fluoro-4-((1-(2-methoxyethyl)-6-((5-methylthiazol-2-yl)amino)-1H-pyrrolo[3,2-c]pyridin-4-yl)oxy)pyrrolidin-1-yl)prop-2-en-1-one], the IC50 in test [1] (setting [3]) and in test [2] (setting [4]) was no more than 20 nM in each case.
For `C=CC(=O)N1CCC[C@H](Oc2nc(Nc3ncc(C)s3)cc3c2ccn3CCOC)C1` [Example 148, (S)-1-(3-((1-(2-methoxyethyl)-6-((5-methylthiazol-2-yl)amino)-1H-pyrrolo[3,2-c]pyridin-4-yl)oxy)piperidin-1-yl)prop-2-en-1-one], the IC50 in test [1] (setting [3]) and in test [2] (setting [4]) was no more than 20 nM each time.
For `C=CC(=O)N1CC[C@H](Oc2nc(Nc3ncc(C)s3)cc3c2ccn3CC(C)C)C1` [Example 81, (S)-1-(3-((1-isobutyl-6-((5-methylthiazol-2-yl)amino)-1H-pyrrolo[3,2-c]pyridin-4-yl)oxy)pyrrolidin-1-yl)prop-2-en-1-one], the IC50 in test [1] (setting [3]) and in test [2] (setting [4]) was no more than 20 nM each time.
For the compound `C=CC(=O)N1CCC[C@H](Oc2nc(Nc3ncc(C)s3)cc3c2ccn3CC(C)C)C1` [Example 150, (S)-1-(3-((1-isobutyl-6-((5-methylthiazol-2-yl)amino)-1H-pyrrolo[3,2-c]pyridin-4-yl)oxy)piperidin-1-yl)prop-2-en-1-one], the results for the half-inhibitory concentration (IC50) in test [1] (setting [3]) and in test [2] (setting [4]) were no more than 20 nM and 20 to 100 nM, respectively.
With `C=CC(=O)N1CC[C@H](Oc2nc(Nc3ncc(C)s3)cc3c2ccn3Cc2ccccc2)C1` [Example 121, (S)-1-(3-((1-benzyl-6-((5-methylthiazol-2-yl)amino)-1H-pyrrolo[3,2-c]pyridin-4-yl)oxy)pyrrolidin-1-yl)prop-2-en-1-one], the half-maximal inhibitory concentration (IC50) in test [1] (setting [5]) and in test [2] (setting [6]) was no more than 20 nM in each case.
Regarding `C=CC(=O)N1CC[C@H](Oc2nc(Nc3ncc(C)s3)cc3c2ccn3CCCC)C1` [Example 124, (S)-1-(3-((1-butyl-6-((5-methylthiazol-2-yl)amino)-1H-pyrrolo[3,2-c]pyridin-4-yl)oxy)pyrrolidin-1-yl)prop-2-en-1-one], the IC50 in test [1] (setting [5]) and in test [2] (setting [6]) was no more than 20 nM in each case.
Regarding `C=CC(=O)N1CC[C@H](Oc2nc(Nc3ncc(C)s3)cc3c2ccn3CCCF)C1` [Example 190, (S)-1-(3-((1-(3-fluoropropyl)-6-((5-methylthiazol-2-yl)amino)-1H-pyrrolo[3,2-c]pyridin-4-yl)oxy)pyrrolidin-1-yl)prop-2-en-1-one], the IC50 in test [1] (setting [3]) and in test [2] (setting [4]) was no more than 20 nM throughout.
Turning to `C=CC(=O)N1CC=C(c2nc(Nc3ncc(C)s3)cc3c2ccn3C(C)C)CC1` [Example 2, 1-(4-(1-isopropyl-6-((5-methylthiazol-2-yl)amino)-1H-pyrrolo[3,2-c]pyridin-4-yl)-3,6-dihydropyridin-1(2H)-yl)prop-2-en-1-one], the concentration for half-maximal inhibition (IC50) is 20 to 100 nM in test [1] (setting [3]), no more than 20 nM in test [1] (setting [5]), 20 to 100 nM in test [2] (setting [4]) and no more than 20 nM in test [2] (setting [6]).
With `C=CC(=O)N1CC=C(c2nc(Nc3nnc(C)s3)cc3c2ccn3C(C)C)CC1` [Example 41, 1-(4-(1-isopropyl-6-((5-methyl-1,3,4-thiadiazol-2-yl)amino)-1H-pyrrolo[3,2-c]pyridin-4-yl)-3,6-dihydropyridin-1(2H)-yl)prop-2-en-1-one], the IC50 was 20 to 100 nM in test [1] (setting [5]) and greater than 500 nM in test [2] (setting [6]).
In the case of `C=CC(=O)N1CC[C@H](Oc2nc(Nc3ncc(C)s3)cc3c2ccn3CC2CCCC2)C1` [Example 128, (S)-1-(3-((1-(cyclopentylmethyl)-6-((5-methylthiazol-2-yl)amino)-1H-pyrrolo[3,2-c]pyridin-4-yl)oxy)pyrrolidin-1-yl)prop-2-en-1-one], the IC50 in test [1] (setting [3]) and in test [2] (setting [4]) was no more than 20 nM in each case.
As for `C=CC(=O)N1CCC[C@@H]1COc1nc(Nc2ncc(C)s2)cc2c1ccn2C(C)C` [Example 89, (R)-1-(2-(((1-isopropyl-6-((5-methylthiazol-2-yl)amino)-1H-pyrrolo[3,2-c]pyridin-4-yl)oxy)methyl)pyrrolidin-1-yl)prop-2-en-1-one], the IC50 in test [1] (setting [3]) was no more than 20 nM; in test [2] (setting [4]), 20 to 100 nM.
Consider `C=CC(=O)N1CC=C(c2nc(Nc3cc(C)ncn3)cc3c2ccn3C(C)C)CC1` [Example 44, 1-(4-(1-isopropyl-6-((6-methylpyrimidin-4-yl)amino)-1H-pyrrolo[3,2-c]pyridin-4-yl)-3,6-dihydropyridin-1(2H)-yl)prop-2-en-1-one], for which the concentration for half-maximal inhibition (IC50) was 20 to 100 nM in test [1] (setting [3]) and 100 to 500 nM in test [2] (setting [4]).
The matching figures for `C=CC(=O)N1CC[C@H](Oc2nc(Nc3ncc(C)s3)cc3c2ccn3CCC(C)C)C1` [Example 114, (S)-1-(3-((1-isopentyl-6-((5-methylthiazol-2-yl)amino)-1H-pyrrolo[3,2-c]pyridin-4-yl)oxy)pyrrolidin-1-yl)prop-2-en-1-one]: no more than 20 nM and no more than 20 nM.
In the case of `C=CC(=O)Nc1cccc(-c2nc(Nc3ncc(C)s3)cc3c2ccn3C)c1OC` [Example 52, N-(2-methoxy-3-(1-methyl-6-((5-methylthiazol-2-yl)amino)-1H-pyrrolo[3,2-c]pyridin-4-yl)phenyl)acrylamide], the half-inhibitory concentration (IC50) in test [1] (setting [5]) and in test [2] (setting [6]) was no more than 20 nM in each case.
On to `C=CC(=O)N1CC(Oc2nc(Nc3ncc(C)s3)cc3c2ccn3CCOC)C1` [Example 146, 1-(3-((1-(2-methoxyethyl)-6-((5-methylthiazol-2-yl)amino)-1H-pyrrolo[3,2-c]pyridin-4-yl)oxy)azetidin-1-yl)prop-2-en-1-one], for which the IC50 in test [1] (setting [3]) and in test [2] (setting [4]) was no more than 20 nM throughout.
As to `C=CC(=O)N1CC[C@H](Oc2nc(Nc3ncc(C)s3)cc3c2ccn3CC2(C(F)(F)F)CC2)C1` (stereo in doubt) [Example 102, (S)-1-(3-((6-((5-methylthiazol-2-yl)amino)-1-((1-(trifluoromethyl)cyclopropyl)methyl)-1H-pyrrolo[3,2-c]pyridin-4-yl)oxy)pyrrolidin-1-yl)prop-2-en-1-one], the half-inhibitory concentration (IC50) in test [1] (setting [3]) and in test [2] (setting [4]) was no more than 20 nM each time.
